Measured values: US11407748B2, “Substituted pyrido[1,2-a]pyrimidines and pyrazino[1,2-a]pyrimidines for enhancing AMPA receptor function” (Takeda Pharmaceutical Company Limited, priority 2017, dated 2022)

Molecular target: T1, hGluR1 flip (Homo sapiens, UniProt P42261)
T1 construct: expressed in transfected cells; host or cells: CHO-K1
Experiment: AMPA receptor function-enhancing activity using calcium influx as index
Format: cell-based
Conditions: test compound 30 μM with 3 mM glutamic acid; CHO-K1/GluR1 flip/stargazin-expressing cells; 100% = 3 mM glutamic acid + 300 μM cyclothiazide, 0% = 3 mM glutamic acid alone
From the text: Experimental Example 1 Measurement Method of AMPA Receptor Function-Enhancing Activity of Compound Using Calcium Influx as Index
(1) Construction of Expression Gene
Human GluR^1 flip cDNA was amplified by PCR method using forward primer […] (SEQ ID NO: 1) and reverse primer […] (SEQ ID NO: 2) artificially synthesized using human brain-derived cDNA (BD Bioscience) as a template. The amplified product was digested with restriction enzymes EcoRI, NotI (TAKARA SHUZO CO. LTD.) and incorporated into the same site of pcDNA3.1 (+) (Invitrogen) to construct pcDNA3.1(+)/human GluR1 flip gene. Human stargazin cDNA was amplified by PCR method using forward primer […] (SEQ ID NO: 3) and reverse primer […] (SEQ ID NO: 4) artificially synthesized using human hippocampus cDNA as a template. The amplified product was digested with restriction enzymes XhoI, BamHI (TAKARA SHUZO CO. LTD.) and incorporated into the same site of pcDNA3.1(−) (Invitrogen) to construct pcDNA3.1 Zeo(−)/human stargazing gene.
(2) Construction of GluR1 Flip/Stargazin Expressing Cell
CHO-K1 cells passaged in a culture medium (Ham's F12 medium (Invitrogen) added with 10% inactivated fetal bovine serum (Morgate) and penicillin, streptomycin (Invitrogen)) were detached using 0.05% trypsin and 0.53 mM EDTA (Invitrogen) diluted with D-PBS(−). The detached cells were suspended in a culture medium, and recovered by centrifugation at 1,000 rpm. The recovered cells were re-suspended in D-PBS(−) and added into 0.4 cm electroporation cuvette (BioRad). pcDNA3.1(+)/human GluR1 flip gene (5 μg) and pcDNA3.1 Zeo(−)/human stargazin gene (15 μg) were added, and introduced into CHO-K1 cells under the conditions of 950 μFd, […] and using Gene Pulser II (BioRad). The introduced cells were cultured overnight in a culture medium. The next day, using a selection medium (culture medium added with zeocin (Invitrogen) at 250 μg/mL), the cells were plated in a 96 well plate at 250 cells/well. The clones showing drug resistance were selected, and GluR1 flip/stargazin expression clones were selected by an assay method shown below using calcium influx as an index.
(3) Measurement Method of AMPA Receptor Function-Enhancing Activity of Compound, Using Calcium Influx as an Index
CHO-K1/GluR1 flip/stargazin-expressing cells were plated on a 384 well black bottom transparent plate, and cultured for 2 days in a CO2 incubator (SANYO ELECTRIC Co. Ltd.) at 37° C. The medium of the cell plate was removed. A calcium indicator (Calcium5 Assay Kit, Molecular Devices) was diluted with an assay buffer (HESS (Thermo Fisher Scientific), 0.1% BSA (Merck Millipoer) and 10 mM HEPES (Thermo Fisher Scientific)), and 1.25 mM probenecid (Dojindo Laboratories) was added thereto. The mixture prepared above was added at 30 μL/well (100 μL/well in case of 96 wells) to the well, and the well was left standing in 37° C., CO2 incubator for 1 hr. The cell plate was set in CellLux (PerkinElmer), a mixture (15 μL) (50 μL/well in case of 96 wells) of 9 mM glutamic acid (final concentration 3 mM) diluted with an assay buffer and a test compound (test compound concentration 30 μM) was added thereto, and variation in the amount of fluorescence was measured for 3 min. The variation of fluorescence level of a well added with final concentration 3 mM of glutamic acid and 300 μM cyclothiazide (TOCRIS) was defined as 100%, the variation of fluorescence level of a well added with final concentration 3 mM of glutamic acid alone was defined as 0%, and the activity of the compound was calculated by the following formula. activity (%)=(X−C)/(T−C)×100 • T: variation of fluorescence level of well added with final concentration 3 mM of glutamic acid and 300 μM cyclothiazide • C: variation of fluorescence level of well added with final concentration 3 mM of glutamic acid alone • X: variation of fluorescence level of well added with test compound

T1 sequence (P42261 19-906 isoform P42261-2 limits assumed): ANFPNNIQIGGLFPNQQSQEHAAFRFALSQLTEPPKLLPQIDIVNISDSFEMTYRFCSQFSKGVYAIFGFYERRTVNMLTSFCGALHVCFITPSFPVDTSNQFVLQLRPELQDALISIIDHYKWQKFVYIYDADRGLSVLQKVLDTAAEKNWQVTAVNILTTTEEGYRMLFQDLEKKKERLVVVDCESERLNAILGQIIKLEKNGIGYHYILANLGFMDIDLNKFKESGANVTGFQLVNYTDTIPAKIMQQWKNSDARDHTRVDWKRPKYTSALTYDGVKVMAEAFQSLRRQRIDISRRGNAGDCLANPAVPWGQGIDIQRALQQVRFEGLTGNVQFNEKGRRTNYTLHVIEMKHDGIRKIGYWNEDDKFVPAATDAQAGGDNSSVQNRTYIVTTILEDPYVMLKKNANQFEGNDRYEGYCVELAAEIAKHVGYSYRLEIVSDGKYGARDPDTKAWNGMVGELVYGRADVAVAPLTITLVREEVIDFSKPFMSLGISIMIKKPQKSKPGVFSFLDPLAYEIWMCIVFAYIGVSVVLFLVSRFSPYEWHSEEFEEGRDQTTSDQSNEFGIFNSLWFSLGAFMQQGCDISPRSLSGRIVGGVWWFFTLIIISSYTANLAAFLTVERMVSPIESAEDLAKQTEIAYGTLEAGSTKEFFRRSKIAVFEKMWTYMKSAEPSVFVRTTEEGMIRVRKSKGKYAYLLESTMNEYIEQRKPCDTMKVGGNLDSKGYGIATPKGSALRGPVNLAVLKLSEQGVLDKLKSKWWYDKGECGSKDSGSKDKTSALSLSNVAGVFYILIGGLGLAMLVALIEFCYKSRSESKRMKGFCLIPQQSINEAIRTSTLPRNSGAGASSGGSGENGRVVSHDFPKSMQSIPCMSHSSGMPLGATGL
T1 sequence (Q9Y698 whole entry partner): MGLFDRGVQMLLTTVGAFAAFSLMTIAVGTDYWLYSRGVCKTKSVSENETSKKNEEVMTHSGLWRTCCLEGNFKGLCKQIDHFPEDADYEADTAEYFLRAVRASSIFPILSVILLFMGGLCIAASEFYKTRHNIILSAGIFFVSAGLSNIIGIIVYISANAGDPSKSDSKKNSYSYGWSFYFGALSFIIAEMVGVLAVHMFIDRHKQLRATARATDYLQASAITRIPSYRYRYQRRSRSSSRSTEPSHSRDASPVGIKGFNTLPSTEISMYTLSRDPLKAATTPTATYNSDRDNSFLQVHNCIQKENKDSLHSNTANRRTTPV

Row | SMILES | hGluR1 flip/30 μM (%) | activation at 30 µM
1 | O=C(c1ccc(-c2cccn3c(=O)c(Br)c(C(F)(F)F)nc23)cc1)N1CCOC(C(F)F)C1 (stereo not drawn) [Example 114, 3-bromo-9-(4-((2-(difluoromethyl)morpholin-4-yl)carbonyl)phenyl)-2-(trifluoromethyl)-4H-pyrido[1,2-a]pyrimidin-4-one] | 77.2% | 
2 | CN(CCC#N)C(=O)c1ccc(-c2cccn3c(=O)c(Br)c(C(F)(F)F)nc23)cc1 [Example 99, 4-(3-bromo-4-oxo-2-(trifluoromethyl)-4H-pyrido[1,2-a]pyrimidin-9-yl)-N-(2-cyanoethyl)-N-methylbenzamide] |  | 76.9%
3 | O=C(NC1CCOCC1)c1ccc(-c2cccn3c(=O)c(Cl)c(C(F)(F)F)nc23)cc1 [Example 131, 4-(3-chloro-4-oxo-2-(trifluoromethyl)-4H-pyrido[1,2-a]pyrimidin-9-yl)-N-(tetrahydro-2H-pyran-4-yl)benzamide] |  | 110%
4 | O=C(NC1CCOCC1)c1ccc(-c2cccn3c(=O)c(Br)c(C(F)(F)F)nc23)cc1 [Example 57, 4-(3-bromo-4-oxo-2-(trifluoromethyl)-4H-pyrido[1,2-a]pyrimidin-9-yl)-N-(tetrahydro-2H-pyran-4-yl)benzamide] |  | 78.7%
5 | COC1CCN(C(=O)c2ccc(-c3cccn4c(=O)c(C)c(C(F)(F)F)nc34)cc2F)CC1 [Example 87, 9-(3-fluoro-4-((4-methoxypiperidin-1-yl)carbonyl)phenyl)-3-methyl-2-(trifluoromethyl)-4H-pyrido[1,2-a]pyrimidin-4-one] |  | 101%
6 | CN(C(=O)c1ccc(-c2cccn3c(=O)cc(C(F)(F)F)nc23)cc1F)C1CCOCC1 [Example 82, 2-fluoro-N-methyl-4-(4-oxo-2-(trifluoromethyl)-4H-pyrido[1,2-a]pyrimidin-9-yl)-N-(tetrahydro-2H-pyran-4-yl)benzamide] |  | 81.4%
7 | Cc1c(C(F)(F)F)nc2c(-c3ccc(C(=O)N4CCOCC4)cc3)cccn2c1=O [Example 37, 3-methyl-9-(4-(morpholin-4-ylcarbonyl)phenyl)-2-(trifluoromethyl)-4H-pyrido[1,2-a]pyrimidin-4-one] |  | 74.9%
8 | CN(CC1CC1)C(=O)c1ccc(-c2cccn3c(=O)c(Br)c(C(F)(F)F)nc23)cc1F [Example 96, 4-(3-bromo-4-oxo-2-(trifluoromethyl)-4H-pyrido[1,2-a]pyrimidin-9-yl)-N-(cyclopropylmethyl)-2-fluoro-N-methylbenzamide] |  | 97.2%
9 | Cc1c(C(F)(F)F)nc2c(-c3ccc(C(=O)N4CCCOCC4)cc3)cccn2c1=O [Example 69, 3-methyl-9-(4-(1,4-oxazepan-4-ylcarbonyl)phenyl)-2-(trifluoromethyl)-4H-pyrido[1,2-a]pyrimidin-4-one] |  | 79.9%
10 | O=C(NC1CCOCC1)c1ccc(-c2cccn3c(=O)cc(C(F)(F)F)nc23)cc1 [Example 123, 4-(4-oxo-2-(trifluoromethyl)-4H-pyrido[1,2-a]pyrimidin-9-yl)-N-(tetrahydro-2H-pyran-4-yl)benzamide] |  | 83.2%
11 | O=C(c1ccc(-c2cccn3c(=O)c(Cl)c(C(F)(F)F)nc23)cc1)N1CCOCC1 [Example 17, 3-chloro-9-(4-(morpholin-4-ylcarbonyl)phenyl)-2-(trifluoromethyl)-4H-pyrido[1,2-a]pyrimidin-4-one] |  | 95.2%
12 | N#CC1CCN(C(=O)c2ccc(-c3cccn4c(=O)c(Br)c(C(F)(F)F)nc34)cc2)C1 (stereo not drawn) [Example 120, 1-(4-(3-bromo-4-oxo-2-(trifluoromethyl)-4H-pyrido[1,2-a]pyrimidin-9-yl)benzoyl)pyrrolidine-3-carbonitrile] |  | 71.5%
13 | O=C(NCC(F)F)c1ccc(-c2cccn3c(=O)cc(C(F)(F)F)nc23)cc1F [Example 42] |  | 83.6%
14 | O=C(NCC(F)(F)F)c1ccc(-c2cccn3c(=O)cc(C(F)(F)F)nc23)cc1F [Example 43, 2-fluoro-4-(4-oxo-2-(trifluoromethyl)-4H-pyrido[1,2-a]pyrimidin-9-yl)-N-(2,2,2-trifluoroethyl)benzamide] |  | 84.1%
15 | CC1(O)CCN(C(=O)c2ccc(-c3cccn4c(=O)cc(C(F)(F)F)nc34)cc2)C1 (stereo not drawn) [Example 28, 9-(4-((3-hydroxy-3-methylpyrrolidin-1-yl)carbonyl)phenyl)-2-(trifluoromethyl)-4H-pyrido[1,2-a]pyrimidin-4-one] |  | 79.3%
16 | O=C(c1ccc(-c2cccn3c(=O)c(Br)c(C(F)(F)F)nc23)cc1F)N1CCc2cccnc21 [Example 79, 3-bromo-9-(4-(2,3-dihydro-1H-pyrrolo[2,3-b]pyridin-1-ylcarbonyl)-3-fluorophenyl)-2-(trifluoromethyl)-4H-pyrido[1,2-a]pyrimidin-4-one] |  | 79.6%
17 | Cc1c(C(F)(F)F)nc2c(-c3ccc(C(=O)N(C)CCC#N)cc3)cccn2c1=O [Example 100, N-(2-cyanoethyl)-N-methyl-4-(3-methyl-4-oxo-2-(trifluoromethyl)-4H-pyrido[1,2-a]pyrimidin-9-yl)benzamide] |  | 89.2%
18 | Cc1c(C(F)(F)F)nc2c(-c3ccc(C(=O)N4CCOC(F)(F)C4)cc3)cccn2c1=O [Example 68, 9-(4-((2,2-difluoromorpholin-4-yl)carbonyl)phenyl)-3-methyl-2-(trifluoromethyl)-4H-pyrido[1,2-a]pyrimidin-4-one] |  | 88.4%
19 | O=C(NCC1CC1)c1ccc(-c2cccn3c(=O)c(Br)c(C(F)(F)F)nc23)cc1F [Example 70, 4-(3-bromo-4-oxo-2-(trifluoromethyl)-4H-pyrido[1,2-a]pyrimidin-9-yl)-N-(cyclopropylmethyl)-2-fluorobenzamide] |  | 71.4%
20 | O=C(N[C@H]1CCCOC1)c1ccc(-c2cccn3c(=O)c(Cl)c(C(F)(F)F)nc23)cc1 [Example 132, 4-(3-chloro-4-oxo-2-(trifluoromethyl)-4H-pyrido[1,2-a]pyrimidin-9-yl)-N-((3S)-tetrahydro-2H-pyran-3-yl)benzamide] |  | 106%
21 | O=C(c1ccc(-c2cccn3c(=O)cc(C(F)(F)F)nc23)cc1)N1CCC(O)(C(F)(F)F)C1 (stereo not drawn) [Example 15, 9-(4-((3-hydroxy-3-(trifluoromethyl)pyrrolidin-1-yl)carbonyl)phenyl)-2-(trifluoromethyl)-4H-pyrido[1,2-a]pyrimidin-4-one] |  | 79.9%
22 | O=C(c1ccc(-c2cccn3c(=O)cc(C(F)(F)F)nc23)cc1)N1CCC(O)C(F)(F)C1 (stereo not drawn) [Example 10, 9-(4-((3,3-difluoro-4-hydroxypiperidin-1-yl)carbonyl)phenyl)-2-(trifluoromethyl)-4H-pyrido[1,2-a]pyrimidin-4-one] |  | 72.7%
23 | O=C(N[C@@H]1CCCOC1)c1ccc(-c2cccn3c(=O)c(Br)c(C(F)(F)F)nc23)cc1F [Example 111, 4-(3-bromo-4-oxo-2-(trifluoromethyl)-4H-pyrido[1,2-a]pyrimidin-9-yl)-2-fluoro-N-((3R)-tetrahydro-2H-pyran-3-yl)benzamide] |  | 91%
24 | Cc1c(C(F)(F)F)nc2c(-c3ccc(C(=O)N4CC(F)(F)C4)cc3)cccn2c1=O [Example 24, 9-(4-((3,3-difluoroazetidin-1-yl)carbonyl)phenyl)-3-methyl-2-(trifluoromethyl)-4H-pyrido[1,2-a]pyrimidin-4-one] |  | 76.9%
